The assay deals with T1, PPARγ (Gal-hPPAR) (Homo sapiens, UniProt P37231).
T1 construct: The reporter is printed as ERE-βGlob-Luc-SV-Neo
T1 sequence (P37231 238-505 limits assumed): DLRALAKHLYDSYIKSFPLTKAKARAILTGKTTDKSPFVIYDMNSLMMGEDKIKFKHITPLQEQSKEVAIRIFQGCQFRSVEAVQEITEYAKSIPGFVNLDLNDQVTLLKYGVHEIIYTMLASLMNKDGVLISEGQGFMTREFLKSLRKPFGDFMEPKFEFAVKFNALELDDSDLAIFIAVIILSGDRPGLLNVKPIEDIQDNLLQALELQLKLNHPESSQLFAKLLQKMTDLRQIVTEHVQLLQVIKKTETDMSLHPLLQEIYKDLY
Nature of the assay: Cross-curve PPAR transactivation test (luciferase reporter, HeLN cells), PPARγ. The class given is cell-based. The conditions noted are these: HeLN stable transfectants; Schild regression against reference agonist; apparent Kd; read-out: PPAR gamma Kd app. Here is the method: The activation of PPAR receptors with an agonist (activator) in HeLN cells leads to the expression of a reporter gene, luciferase, which, in the presence of a substrate, generates light. The modulation of the PPAR receptors is measured by quantifying the luminescence produced after incubating the cells in the presence of a reference agonist. The ligands displace the agonist from its site. The measurement of the activity is performed by quantifying the light produced. This measurement makes it possible to determine the modulatory activity of the compounds according to the invention by determining the constant that is the affinity of the molecule for the PPAR receptor. Since this value can fluctuate depending on the basal activity and the expression of the receptor, it is referred to as Kd apparent (KdApp in nM).
To determine this constant, “cross curves” of the test product against a reference agonist are produced in a 96-well plate: 10 concentrations of the test product plus a concentration 0 are arranged in a line, and 7 concentrations of the agonist plus a concentration 0 are arranged in a column. This is 88 measurement points for 1 product and 1 receptor. […]
The various dilutions of the test products and of the reference ligand are added at a rate of 5 μl per well. […] After 5 minutes, the plates are read by the luminescence detector.

For `CCCCOc1cc(CCC(=O)O)ccc1CCCc1ccc(OS(=O)(=O)CCCC)c(OC)c1` [Example 5, 3-(4-{3-[4-(butane-1-sulfonyloxy)-3-methoxyphenyl]propyl}-3-butoxyphenyl)propanoic acid], the Kd worked out at 8 nM.

For the origin of these results see patent US7879907B2, “3-phenylpropanoic compound activators of receptors of PPAR type and pharmaceutical/cosmetic compositions comprised thereof” (Galderma Research & Development, priority 2007, dated 2011).
